US5925549A, “Soluble 7-transmembrane domain G-protein-coupled receptor compositions and methods” (The Board of Trustees of the Leland Stanford Junior …, priority 1997, dated 1999)

What was measured:
rat testis cells = test: Testis cell apoptosis, DNA fragmentation by 3' end-labeling and in situ analysis (Apotag kit); format: in vivo; settings: immature male rats; GnRH antagonist 50 μg/rat; 2 days; FIG. 5C; comparable to FBP-treated group
Procedure: (§1) Two days after the initial injection, the testis were weighed and testis cell apoptosis was quantitated using a 3' end-labeling method (Tapanainen,et al., 1993). The effects of FBP were also assayed using in situ analysis of specific cell types undergoing apoptosis with the "APOTAG" kit (Oncor, Gaithersburg, Md.) as previously described (Billig, et al., 1995).
(§2) Some animals were treated with a potent gonadotropin releasing hormone (GnRH) antagonist (Org30850: Acetyl-D-parachloro-Phe (AcDpCl-Phe), D-parachloro-Phe (DpCl-Phe), D-Bal, DLys, DAla-amide; (AcDpCl)Phe1 - (DpCl)Phe2 - D-Bal3 - DLys6 -DAla10(amide) (SEQ ID NO:5; D refers to D (not L) amino acids); 50 μg/rat, FIG. 5C (ANT); Decker, et al., 1992) to suppress pituitary release of LH and FSH (Decker, et al., 1992) whereas others were treated with conditioned media of SF9 cells infected with wild type baculovirus. In situ analysis of specific cell types undergoing apoptosis was performed using Apotag kit (Oncor, Gaithersburg, MD) as previously described (Billig, et al., 1995). Animal care was in accordance with institutional guidelines.

[1] = test system: immature male rats (testis growth); test: Testis weight in immature male rats after 2 days of treatment; format: in vivo; settings: 21 days of age, GnRH antagonist 50 μg/rat, testes weighed two days after initial injection, untreated 192±28 mg
Procedure: Immature male rats (21 days of age, weighing between about 45 and 50 g) were injected subcutaneously (s.c.) every 6h for a period of 2 days with 1 ml conditioned media of SF9 cells (10^8 cells equivalent/injection) containing solubilized FSH receptor fragments prepared as described above. The concentration of soluble receptor protein in the injection volume was between about 30 and 100 μg/ml. The effective dose administered every 6 hours was therefore between […].
as §1
as §2, with “In situ analysis of specific cell types undergoing apoptosis was performed using Apotag kit (Oncor, Gaithersburg, MD) as previously described (Billig, et al., 1995). Animal care was in accordance with institutional guidelines.” left out

## Acetyl-D-parachloro-Phe (AcDpCl-Phe), D-parachloro-Phe (DpCl-Phe), D-Bal, DLys, DAla-amide; (AcDpCl)Phe1 - (DpCl)Phe2 - D-Bal3 - DLys6 -DAla10(amide) [ANT]
Rat testis cells
  apoptotic DNA fragmentation in testis cells: increases in apoptotic DNA fragmentation
[1]
  testis weight: 140 ± 18 mg
